The source made the active and inactive calls.
Tests used:
[1] = target: T1, Probable nicotinate-nucleotide adenylyltransferase (Staphylococcus aureus (strain N315), UniProt P65502); type: functional, Staphylococcus aureus subsp. aureus N315;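 for IC50 Mean: confirmatory dose-response retesting of NadD inhibitor hits first found in an ultra-high-throughput screen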
[2] = target: T1, Probable nicotinate-nucleotide adenylyltransferase; type: functional, Staphylococcus aureus subsp. aureus N315; conditions: read-out: IC50_Mean
[3] = target: T2, Replicative DNA helicase DnaB (Mycobacterium tuberculosis, UniProt P9WMR3); assay: DnaB intein splicing inhibitors, dose response, biochemical, cell-free fluorescence (AID 449749); type: functional
T2 sequence (P9WMR3 whole entry): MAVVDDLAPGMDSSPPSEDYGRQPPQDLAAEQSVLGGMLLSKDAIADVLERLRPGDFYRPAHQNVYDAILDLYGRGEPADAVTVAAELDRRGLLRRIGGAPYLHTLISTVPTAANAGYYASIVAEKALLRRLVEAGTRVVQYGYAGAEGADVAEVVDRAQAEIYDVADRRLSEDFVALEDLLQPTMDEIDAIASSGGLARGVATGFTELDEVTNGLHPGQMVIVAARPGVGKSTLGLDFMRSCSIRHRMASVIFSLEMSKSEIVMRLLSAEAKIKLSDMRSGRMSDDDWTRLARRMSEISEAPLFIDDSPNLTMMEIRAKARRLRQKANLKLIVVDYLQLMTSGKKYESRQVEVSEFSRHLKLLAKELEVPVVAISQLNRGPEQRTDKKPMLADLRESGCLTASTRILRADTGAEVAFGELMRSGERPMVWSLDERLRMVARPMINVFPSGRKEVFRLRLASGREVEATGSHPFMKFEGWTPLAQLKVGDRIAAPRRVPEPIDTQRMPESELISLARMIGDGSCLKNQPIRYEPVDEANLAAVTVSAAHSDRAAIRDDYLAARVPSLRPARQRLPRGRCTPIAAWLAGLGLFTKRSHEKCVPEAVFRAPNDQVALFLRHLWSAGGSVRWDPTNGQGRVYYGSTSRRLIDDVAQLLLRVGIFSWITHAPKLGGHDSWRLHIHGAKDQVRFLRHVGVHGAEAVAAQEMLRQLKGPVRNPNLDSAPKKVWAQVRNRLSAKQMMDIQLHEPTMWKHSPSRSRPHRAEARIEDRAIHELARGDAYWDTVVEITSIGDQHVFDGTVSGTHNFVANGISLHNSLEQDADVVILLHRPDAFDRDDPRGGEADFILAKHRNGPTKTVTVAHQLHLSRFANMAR

Protein RecA = target: T3, Protein RecA (Mycobacterium tuberculosis, UniProt P9WHJ3); assay: Fluorescence Cell-Free Homogeneous Dose Retest to Identify Inhibitors of RecA-Intein Splicing Activity. [Related pubchem assays (depositor defined):AID2097, AID2223, AID489010, AID492950]; type: functional
T3 sequence (P9WHJ3 whole entry): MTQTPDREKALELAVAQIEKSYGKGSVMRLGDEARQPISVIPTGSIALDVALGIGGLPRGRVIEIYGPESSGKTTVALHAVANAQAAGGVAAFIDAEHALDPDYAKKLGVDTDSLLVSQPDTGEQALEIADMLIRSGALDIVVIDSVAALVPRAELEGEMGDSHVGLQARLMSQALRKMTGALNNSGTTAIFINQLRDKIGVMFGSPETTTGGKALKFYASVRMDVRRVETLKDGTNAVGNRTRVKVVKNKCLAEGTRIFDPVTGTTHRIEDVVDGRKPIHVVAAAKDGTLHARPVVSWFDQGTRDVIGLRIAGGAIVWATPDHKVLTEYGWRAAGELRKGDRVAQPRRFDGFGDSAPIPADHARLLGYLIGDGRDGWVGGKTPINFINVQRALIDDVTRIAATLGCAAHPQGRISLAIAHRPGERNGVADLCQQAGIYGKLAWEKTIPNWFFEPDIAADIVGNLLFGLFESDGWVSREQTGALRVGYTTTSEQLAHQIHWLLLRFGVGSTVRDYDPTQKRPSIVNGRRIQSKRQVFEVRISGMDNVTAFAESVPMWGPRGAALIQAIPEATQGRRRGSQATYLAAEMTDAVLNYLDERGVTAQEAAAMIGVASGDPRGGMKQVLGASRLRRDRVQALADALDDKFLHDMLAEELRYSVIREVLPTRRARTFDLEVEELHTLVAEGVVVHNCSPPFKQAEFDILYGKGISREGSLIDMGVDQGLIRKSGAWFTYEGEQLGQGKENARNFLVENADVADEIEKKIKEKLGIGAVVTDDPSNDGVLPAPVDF

[4] = target: Photoreceptor-specific nuclear receptor (Homo sapiens, UniProt Q9Y5X4); type: functional, cell-based;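 note: CHO-S cells with Gal4-NCOR and VP16-NR2E3 two-hybrid luciferase reporter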
Sequence of Photoreceptor-specific nuclear receptor (Q9Y5X4 whole entry, the tested form may be a part): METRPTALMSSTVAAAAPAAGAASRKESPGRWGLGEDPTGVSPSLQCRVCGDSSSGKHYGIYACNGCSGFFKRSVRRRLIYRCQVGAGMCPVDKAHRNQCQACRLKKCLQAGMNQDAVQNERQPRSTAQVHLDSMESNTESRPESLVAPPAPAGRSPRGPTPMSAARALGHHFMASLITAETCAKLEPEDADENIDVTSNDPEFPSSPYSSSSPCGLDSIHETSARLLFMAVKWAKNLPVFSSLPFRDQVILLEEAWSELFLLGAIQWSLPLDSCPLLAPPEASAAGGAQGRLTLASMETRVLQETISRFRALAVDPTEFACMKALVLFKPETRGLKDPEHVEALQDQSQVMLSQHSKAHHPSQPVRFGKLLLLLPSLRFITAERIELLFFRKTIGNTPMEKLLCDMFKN

Interleukin-8 = target: T4, Interleukin-8 (Homo sapiens, UniProt P10145); assay: Dose Response confirmation of uHTS small molecule hits for cystic fibrosis induced NFkb Inhibitors in a PAF-induced IL8 counterscreen.; type: functional; conditions: read-out: IC50_Mean
T4 sequence (P10145 whole entry): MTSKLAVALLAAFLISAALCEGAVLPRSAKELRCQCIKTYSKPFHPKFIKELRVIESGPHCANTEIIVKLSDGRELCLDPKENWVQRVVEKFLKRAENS

[5] = inhibitors of clade B AD8 Env fusion, dose response, cell-based, cherry-pick (AID 652062); type: functional;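 note: luciferase signal from cell-cell fusion driven by HIV-1 clade B AD8 Env; potency is for inhibitors of fusion seen as a drop in luminescence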
[6] = inhibitors of HIV Env-driven cell fusion, dose response, cherry-pick (AID 652057); type: functional, cell-based
[7] = target: Mitogen-activated protein kinase 10 (Homo sapiens, UniProt P53779); assay: Dose response biochemical screening assay for inhibitors of c-Jun N-Terminal Kinase 3 (JNK3). [Related pubchem assays: 746 ]
Sequence of Mitogen-activated protein kinase 10 (P53779 whole entry, the tested form may be a part): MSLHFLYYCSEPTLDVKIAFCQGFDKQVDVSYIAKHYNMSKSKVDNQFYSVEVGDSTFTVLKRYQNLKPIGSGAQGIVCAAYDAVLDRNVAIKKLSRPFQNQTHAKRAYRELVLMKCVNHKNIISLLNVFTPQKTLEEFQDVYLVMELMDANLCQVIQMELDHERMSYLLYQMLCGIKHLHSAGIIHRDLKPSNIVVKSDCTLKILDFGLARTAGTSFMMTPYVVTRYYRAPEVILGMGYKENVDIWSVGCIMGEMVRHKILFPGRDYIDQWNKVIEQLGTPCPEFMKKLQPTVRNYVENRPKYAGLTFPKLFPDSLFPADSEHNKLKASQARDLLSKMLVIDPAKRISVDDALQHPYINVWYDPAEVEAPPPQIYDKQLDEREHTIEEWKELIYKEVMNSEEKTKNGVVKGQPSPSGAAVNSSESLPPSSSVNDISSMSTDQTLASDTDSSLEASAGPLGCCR

[8] = off-target signal loss in HeLa-CEM21 co-culture – HeLa F-luc CTL cells, cherry-picked, counter-screen for HIV-1 Env fusion inhibitor project, dose response (AID 652040); type: functional, cell-based;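 note: potency for signal decrease marking cytotoxic or nonspecific inhibition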
[9] = AlphaScreen signal interference compounds, dose response, artefact control for ARNT-TACC3 interaction inhibitor project, biochemical, luminescence, cherry-pick (AID 651705); type: functional;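 note: AlphaScreen bead proximity signal that flags compounds interfering with the detection technology; potency reflects signal decrease which marks the compound as an assay artifact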
[10] = ARNT/TACC3 interaction disruptors, potency, confirmation, biochemical, AlphaScreen, cherry-picked samples (AID 651703); type: functional, Homo sapiens;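 note: His-tagged ARNT PAS-B domain paired with GST-TACC3 E629A dimer coactivator fragment; potency of inhibitors that break up the complex and lower AlphaScreen signal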
cells [11] = type: functional, cell-based
[12] = target: Adenosylmethionine-8-amino-7-oxononanoate aminotransferase (Mycobacterium tuberculosis, UniProt P9WQ81); assay: Mycobacterium tuberculosis BioA enzyme inhibitor Measured in Biochemical System Using Plate Reader - 2163-02_Inhibitor_Dose_CherryPick_Activity.; type: functional, Mycobacterium tuberculosis UT205
Sequence of Adenosylmethionine-8-amino-7-oxononanoate aminotransferase (P9WQ81 whole entry): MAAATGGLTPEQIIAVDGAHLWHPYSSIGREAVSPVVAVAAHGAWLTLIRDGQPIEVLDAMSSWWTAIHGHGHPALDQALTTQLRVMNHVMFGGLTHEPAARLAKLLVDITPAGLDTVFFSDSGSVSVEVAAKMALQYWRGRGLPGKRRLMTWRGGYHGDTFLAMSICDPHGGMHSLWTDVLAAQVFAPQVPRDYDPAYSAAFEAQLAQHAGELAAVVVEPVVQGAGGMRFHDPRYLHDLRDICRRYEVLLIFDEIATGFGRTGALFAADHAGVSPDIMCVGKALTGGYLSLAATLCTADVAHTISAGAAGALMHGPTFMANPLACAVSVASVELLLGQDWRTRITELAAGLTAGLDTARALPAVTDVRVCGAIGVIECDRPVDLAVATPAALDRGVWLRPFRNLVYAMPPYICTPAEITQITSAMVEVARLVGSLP

cells [13] = type: functional, cell-based; remark: listed apart in the source
[14] = target: T5, Corticotropin-releasing factor receptor 2/Corticotropin-releasing factor-binding protein (Homo sapiens, UniProt P24387+Q13324); assay: Dose Response confirmation of uHTS hits for small molecule antagonists of the CRF-binding protein and CRF-R2 receptor complex.; type: functional; conditions: read-out: IC50_Mean
T5 sequence (Q13324 whole entry): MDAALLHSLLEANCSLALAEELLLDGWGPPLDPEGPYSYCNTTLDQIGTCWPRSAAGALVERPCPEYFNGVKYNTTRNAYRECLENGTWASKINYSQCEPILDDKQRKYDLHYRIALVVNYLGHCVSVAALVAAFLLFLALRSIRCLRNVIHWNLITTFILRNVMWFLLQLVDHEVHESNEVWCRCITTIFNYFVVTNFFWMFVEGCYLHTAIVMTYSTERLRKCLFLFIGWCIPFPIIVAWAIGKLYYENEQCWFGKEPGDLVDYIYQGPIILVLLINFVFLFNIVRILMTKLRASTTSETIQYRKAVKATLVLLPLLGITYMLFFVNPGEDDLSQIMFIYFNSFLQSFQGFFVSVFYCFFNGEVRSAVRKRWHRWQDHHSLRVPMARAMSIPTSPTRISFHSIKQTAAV
T5 sequence (P24387 whole entry): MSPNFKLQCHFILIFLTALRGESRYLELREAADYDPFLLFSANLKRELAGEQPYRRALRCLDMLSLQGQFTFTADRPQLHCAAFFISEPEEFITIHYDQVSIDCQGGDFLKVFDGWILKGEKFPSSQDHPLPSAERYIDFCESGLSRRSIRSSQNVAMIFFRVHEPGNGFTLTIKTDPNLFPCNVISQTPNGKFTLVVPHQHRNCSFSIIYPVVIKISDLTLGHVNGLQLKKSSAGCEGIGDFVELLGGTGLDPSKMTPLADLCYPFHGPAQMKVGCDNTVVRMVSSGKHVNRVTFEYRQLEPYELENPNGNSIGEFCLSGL

[15] = target: T5, Corticotropin-releasing factor receptor 2/Corticotropin-releasing factor-binding protein; assay: activators of CRF receptor 2 with binding protein – uHTS hits, confirmation (AID 602473); type: functional; conditions: read-out: EC50_Mean
[16] = CRF-BP/CRF-R2 complex antagonists, dose response, cell-based, uHTS hits, 384-well (AID 651639); type: functional, Homo sapiens; conditions: read-out: IC50_Mean
[17] = target: Mitochondrial peptide methionine sulfoxide reductase (Bos taurus, UniProt P54149); assay: Absorbance-based biochemical high throughput dose response assay for activators of Methionine sulfoxide reductase A (MsrA).; type: functional
Sequence of Mitochondrial peptide methionine sulfoxide reductase (P54149 whole entry): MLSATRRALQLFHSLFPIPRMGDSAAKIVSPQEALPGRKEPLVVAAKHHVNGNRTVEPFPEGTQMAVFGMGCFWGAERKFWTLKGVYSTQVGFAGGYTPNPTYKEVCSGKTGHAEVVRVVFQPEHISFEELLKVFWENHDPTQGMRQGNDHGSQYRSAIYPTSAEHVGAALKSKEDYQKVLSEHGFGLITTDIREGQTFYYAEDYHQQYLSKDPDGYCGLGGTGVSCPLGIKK

Beta Lactamase = Beta Lactamase (Pseudomonas aeruginosa, UniProt Q932Y6); assay: beta-lactamase reporter inhibitor potency, dose response, artefact control for NOD2-RIPK2 interaction inhibitor project, BLA reporter cells, FRET fluorescence (AID 651552); type: functional, cell-based
Sequence of Beta Lactamase (Q932Y6 whole entry): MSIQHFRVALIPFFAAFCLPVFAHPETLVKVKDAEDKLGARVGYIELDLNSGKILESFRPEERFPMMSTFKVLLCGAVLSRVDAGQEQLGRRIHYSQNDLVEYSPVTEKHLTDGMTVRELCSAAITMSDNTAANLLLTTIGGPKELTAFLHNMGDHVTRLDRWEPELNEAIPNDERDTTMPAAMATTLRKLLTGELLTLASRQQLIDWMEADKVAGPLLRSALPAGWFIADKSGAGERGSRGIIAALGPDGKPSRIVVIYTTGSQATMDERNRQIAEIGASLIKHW

[18] = target: Glucose-6-phosphate 1-dehydrogenase (Homo sapiens, UniProt P11413); assay: human G6PD enzyme inhibitors, dose response, selectivity assay for P. falciparum G6PD inhibitor project, biochemical, fluorescence (AID 504792); type: functional
Sequence of Glucose-6-phosphate 1-dehydrogenase (P11413 whole entry): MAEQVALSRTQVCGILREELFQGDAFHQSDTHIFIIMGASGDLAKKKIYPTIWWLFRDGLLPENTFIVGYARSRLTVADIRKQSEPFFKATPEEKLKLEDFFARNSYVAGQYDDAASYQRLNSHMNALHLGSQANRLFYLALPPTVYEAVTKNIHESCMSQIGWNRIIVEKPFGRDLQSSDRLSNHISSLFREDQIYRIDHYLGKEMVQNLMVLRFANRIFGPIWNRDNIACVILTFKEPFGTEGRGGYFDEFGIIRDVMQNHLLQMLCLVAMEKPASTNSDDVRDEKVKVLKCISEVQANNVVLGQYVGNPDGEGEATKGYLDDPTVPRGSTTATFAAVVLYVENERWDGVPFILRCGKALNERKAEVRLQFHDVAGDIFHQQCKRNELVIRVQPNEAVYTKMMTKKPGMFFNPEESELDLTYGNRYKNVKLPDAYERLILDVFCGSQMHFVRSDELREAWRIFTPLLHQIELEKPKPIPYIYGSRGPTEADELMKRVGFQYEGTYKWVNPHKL

Hexokinase = target: T6, Hexokinase (Trypanosoma brucei, UniProt Q38C41); assay: Confirmation assay for inhibitors of Trypanosoma brucei hexokinase 1-Analogue-first series. [Related pubchem assays (depositor defined):AID1430, AID1632, AID2516, AID2560, AID2579, AID2600, AID449725, AID492951]; type: functional
T6 sequence (Q38C41 whole entry): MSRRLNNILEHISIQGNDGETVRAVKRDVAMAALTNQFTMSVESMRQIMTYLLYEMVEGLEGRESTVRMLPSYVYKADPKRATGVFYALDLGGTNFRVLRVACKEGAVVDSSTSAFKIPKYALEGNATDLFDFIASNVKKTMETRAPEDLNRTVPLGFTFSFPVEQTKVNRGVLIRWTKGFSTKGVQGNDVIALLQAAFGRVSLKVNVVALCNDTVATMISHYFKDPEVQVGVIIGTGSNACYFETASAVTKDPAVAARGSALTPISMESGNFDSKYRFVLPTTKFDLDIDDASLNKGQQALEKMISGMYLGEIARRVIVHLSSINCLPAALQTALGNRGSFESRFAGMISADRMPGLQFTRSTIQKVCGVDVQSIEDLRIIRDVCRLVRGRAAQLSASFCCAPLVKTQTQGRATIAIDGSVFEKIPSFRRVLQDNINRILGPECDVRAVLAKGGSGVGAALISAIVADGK

[19] = Fluorescence-based cell-based high throughput dose response assay for inhibitors of the interaction of nucleotide-binding oligomerization domain containing 2 (NOD2) and the receptor-interacting serine-threonine kinase 2 (RIPK2).; type: functional; conditions: Homo sapiens
[20] = target: T7, Rac GTPase-activating protein 1 (Homo sapiens, UniProt Q9H0H5); assay: MgcRacGAP GTPase-activating activity inhibitors, confirmation, biochemical, ADP Hunter fluorescence, primary and confirmatory (AID 624330); type: functional
T7 sequence (Q9H0H5 whole entry): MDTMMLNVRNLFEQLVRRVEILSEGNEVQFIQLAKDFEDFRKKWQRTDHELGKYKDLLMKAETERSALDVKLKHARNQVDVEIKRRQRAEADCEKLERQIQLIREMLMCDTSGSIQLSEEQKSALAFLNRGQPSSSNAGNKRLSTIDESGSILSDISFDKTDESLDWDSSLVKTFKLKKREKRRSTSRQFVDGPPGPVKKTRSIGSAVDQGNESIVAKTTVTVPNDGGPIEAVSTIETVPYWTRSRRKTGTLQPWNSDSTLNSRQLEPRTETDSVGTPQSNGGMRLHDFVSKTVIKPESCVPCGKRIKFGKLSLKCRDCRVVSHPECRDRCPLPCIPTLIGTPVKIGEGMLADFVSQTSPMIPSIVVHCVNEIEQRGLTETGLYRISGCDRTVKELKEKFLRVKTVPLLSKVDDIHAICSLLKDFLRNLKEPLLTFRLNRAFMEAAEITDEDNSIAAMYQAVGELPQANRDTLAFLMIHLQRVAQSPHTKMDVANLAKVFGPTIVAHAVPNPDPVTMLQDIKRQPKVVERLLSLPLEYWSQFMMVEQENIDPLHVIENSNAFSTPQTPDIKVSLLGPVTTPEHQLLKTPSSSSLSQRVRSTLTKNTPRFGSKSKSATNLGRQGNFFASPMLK

T1 sequence (P65502 whole entry): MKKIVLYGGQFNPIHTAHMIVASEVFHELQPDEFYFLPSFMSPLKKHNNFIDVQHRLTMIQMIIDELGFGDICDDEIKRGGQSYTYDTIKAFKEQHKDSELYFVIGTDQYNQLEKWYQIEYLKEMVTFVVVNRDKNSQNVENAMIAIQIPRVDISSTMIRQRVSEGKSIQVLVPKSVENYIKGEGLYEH

Structure (SMILES): CCn1c(SCC(=O)Nc2nc(-c3ccc(C)cc3)cs2)nnc1-c1ccccc1O
- IC50 [1]: 17.9 µM (active)
- IC50 [2]: 41.6 µM (active)
- AC50 [3]: 3.46 µM (active)
- EC50 (Protein RecA): 174 µM (active)

Structure (SMILES): O=C1NC(=O)C(=Cc2ccc(Cl)cc2Cl)S1
- IC50 [4]: 4.65 µM (active)

Structure (SMILES): COc1ccc2ncn(-c3ccccc3)c2c1
- IC50 (Interleukin-8): 17.3 µM (inactive)
- AC50 [5]: 40.2 µM (active)
- AC50 [6]: 11.6 µM (active)
- IC50 [7]: 34.9 µM (not active)
- AC50 [8]: 20.1 µM (active)

Structure (SMILES): Cc1ccccc1/C=N/N1C(=O)CSC1=S
- AC50 [9]: 135 µM (active)
- AC50 [10]: 109 µM (active)

Structure (SMILES): CC(=O)c1ccc(C(=O)N2CCCC(Nc3ccc(C(C)C)cc3)C2)s1 (stereo unspecified)
- EC50 (cells [11]): > 350 µM (not active)
- AC50 [12]: 0.833 µM (active)
- EC50 (cells [13]): > 350 µM (not active)

Structure (SMILES): O=[N+]([O-])c1ccc(NS(=O)(=O)c2ccccc2)c(Cl)c1
- IC50 [14]: 4.45 µM (active)
- EC50 [15]: > 53 µM (inactive)
- IC50 [16]: > 20 µM (inactive)
- IC50 [4]: 3.22 µM (active)

Structure (SMILES): O=C(Nc1ccc(F)c(F)c1)C1CCN(S(=O)(=O)c2cccs2)CC1
- AC50 [12]: 0.564 µM (active)

Structure (SMILES): O=c1c2ccc(F)cc2sn1-c1ccccc1
- EC50 [17]: > 104 µM (inactive)
- IC50 (Beta Lactamase): 23.4 µM (inactive)
- IC50 [18]: 11.8 µM (active)
- IC50 (Hexokinase): 2.31 µM (active)
- IC50 [19]: 5.43 µM (active)
- IC50 [20]: 36.4 µM (active)

From ChEMBL document CHEMBL1201862, “PubChem BioAssay data set” (2004)
